Where a name gives a salt, the structure may show the parent alone.

The first assay concerns the target T1, human MGL from HeLa cells (Homo sapiens, UniProt Q99685).
T1 construct: combining endogenously expressed MGL from HeLa cells with test compounds; endogenous in cells; host or cells: HeLa cells / cell homogenates
T1 sequence (Q99685 1-303): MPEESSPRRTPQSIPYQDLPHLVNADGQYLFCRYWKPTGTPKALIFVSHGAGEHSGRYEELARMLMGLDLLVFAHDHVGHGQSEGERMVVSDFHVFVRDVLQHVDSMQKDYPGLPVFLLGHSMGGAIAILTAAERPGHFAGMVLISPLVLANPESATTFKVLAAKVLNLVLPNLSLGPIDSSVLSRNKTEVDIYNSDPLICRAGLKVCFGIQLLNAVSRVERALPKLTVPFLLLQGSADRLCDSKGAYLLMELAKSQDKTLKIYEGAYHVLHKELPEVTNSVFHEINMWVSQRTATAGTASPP
The experiment in a line: In vitro MGL activity assay: [glycerol-1,3-3H]-oleyl glycerol cleavage by MGL from HeLa cells. Type of assay: biochemical. To be noted: 300 nM [Glycerol-1,3-3H]-oleyl glycerol, one hour. The text has this: MGL is the predominant hydrolase in HeLa cells/cell homogenates.
For `C[C@H]1c2nn(C)c(-c3cc(F)c(F)c(F)c3)c2CCN1C(=O)c1c(C(F)(F)F)nc2ccccn12` [Example 413, [(7S)-2,7-Dimethyl-3-(3,4,5-trifluorophenyl)-5,7-dihydro-4H-pyrazolo[3,4-c]pyridin-6-yl]-[2-(trifluoromethyl)imidazo[1,2-a]pyridin-3-yl]methanone], the IC50 (in general, the point on the concentration scale where inhibition reaches its midpoint) was determined as 23 nM.
The same measure, in the same setting: the figure for `C[C@H]1c2nn(C)c(-c3cc(F)c(F)c(F)c3)c2CCN1C(=O)c1cnn2ccccc12` [Example 381, [(7S)-2,7-Dimethyl-3-(3,4,5-trifluorophenyl)-5,7-dihydro-4H-pyrazolo[3,4-c]pyridin-6-yl]-pyrazolo[1,5-a]pyridin-3-yl-methanone.TFA salt] is 10.7 nM.
The same measure, in the same setting: to `C[C@H]1c2nn(C)c(-c3cc(F)c(F)c(F)c3)c2CCN1C(=O)c1cn(C)nc1C1(F)CC1` [Example 348, [(7S)-2,7-Dimethyl-3-(3,4,5-trifluorophenyl)-5,7-dihydro-4H-pyrazolo[3,4-c]pyridin-6-yl]-[3-(1-fluorocyclopropyl)-1-methyl-pyrazol-4-yl]methanone] belongs 848 nM; to `Cc1cc(-c2c3c(nn2C)[C@H](C)N(C(=O)c2ccc4ncccc4c2)CC3)ccn1` [Example 520, [(7S)-2,7-Dimethyl-3-(2-methyl-4-pyridyl)-5,7-dihydro-4H-pyrazolo[3,4-c]pyridin-6-yl]-(6-quinolyl)methanone], 1110 nM.
On the same count and under the same terms, the figure for `COc1ncc(-c2c3c(nn2C)[C@H](C)N(C(=O)c2ccc4ncccc4c2)CC3)cc1C(F)(F)F` [Example 530, [(7S)-3-[6-Methoxy-5-(trifluoromethyl)-3-pyridyl]-2,7-dimethyl-5,7-dihydro-4H-pyrazolo[3,4-c]pyridin-6-yl]-(6-quinolyl)methanone] is 130 nM; for `Cc1ccnn2nc(C3CC3)c(C(=O)N3CCc4c(nn(C)c4-c4cc(F)c(F)c(F)c4)[C@@H]3C)c12` [Example 444, (2-Cyclopropyl-4-methyl-pyrazolo[1,5-b]pyridazin-3-yl)-[(7S)-2,7-dimethyl-3-(3,4,5-trifluorophenyl)-5,7-dihydro-4H-pyrazolo[3,4-c]pyridin-6-yl]methanone] it is 2380 nM; for `C[C@H]1c2nn(C)c(-c3ccc(OC(F)(F)F)cc3)c2CCN1C(=O)c1ccc2ncccc2c1` [Example 500, [(7S)-2,7-Dimethyl-3-[4-(trifluoromethoxy)phenyl]-5,7-dihydro-4H-pyrazolo[3,4-c]pyridin-6-yl]-(6-quinolyl)methanone] it is 75.7 nM.
`C[C@H]1c2nn(C)c(-c3cc(F)c(F)c(F)c3)c2CCN1C(=O)c1ncnc2c1ncn2C` [Example 606, [(7S)-2,7-Dimethyl-3-(3,4,5-trifluorophenyl)-5,7-dihydro-4H-pyrazolo[3,4-c]pyridin-6-yl]-(9-methylpurin-6-yl)methanone] came in with an IC50 of 724 nM.
On the same count and under the same terms, the figure for `Cc1cn2c(C(=O)N3CCc4c(nn(C)c4-c4cc(F)c(F)c(F)c4)[C@@H]3C)cccc2n1` [Example 394, [(7S)-2,7-Dimethyl-3-(3,4,5-trifluorophenyl)-5,7-dihydro-4H-pyrazolo[3,4-c]pyridin-6-yl]-(2-methylimidazo[1,2-a]pyridin-5-yl)methanone] is 140 nM; for `C[C@H]1c2nn(C)c(-c3cc(F)c(F)c(F)c3)c2CCN1C(=O)c1ccc2ncncc2c1` [Example 479, [(7S)-2,7-Dimethyl-3-(3,4,5-trifluorophenyl)-5,7-dihydro-4H-pyrazolo[3,4-c]pyridin-6-yl]-quinazolin-6-yl-methanone] it is 189 nM.
On the same count and under the same terms, the figure for `Cc1nn2cccnc2c1C(=O)N1CCc2c(nn(C)c2-c2cc(F)c(F)c(F)c2)[C@@H]1C` [Example 449, [(7S)-2,7-Dimethyl-3-(3,4,5-trifluorophenyl)-5,7-dihydro-4H-pyrazolo[3,4-c]pyridin-6-yl]-(2-methylpyrazolo[1,5-a]pyrimidin-3-yl)methanone] is 49 nM.
On the same count and under the same terms, to `C[C@H]1c2nn(C)c(-c3cc(F)c(F)c(F)c3)c2CCN1C(=O)c1cccn2ncc(Br)c12` [Example 379, (3-Bromopyrazolo[1,5-a]pyridin-4-yl)-[(7S)-2,7-dimethyl-3-(3,4,5-trifluorophenyl)-5,7-dihydro-4H-pyrazolo[3,4-c]pyridin-6-yl]methanone] belongs 45.5 nM.
`C[C@H]1c2nn(C)c(-c3cc(F)c(F)c(F)c3)c2CCN1C(=O)c1cnc2[nH]ncc2c1` [Example 423, [(7S)-2,7-Dimethyl-3-(3,4,5-trifluorophenyl)-5,7-dihydro-4H-pyrazolo[3,4-c]pyridin-6-yl]-(1H-pyrazolo[3,4-b]pyridin-5-yl)methanone.TFA salt] yielded a half-maximal inhibitory concentration (IC50) of 41 nM. This IC50 and that of the compound before are within 1.5-fold of each other.
Still for that read-out and setting: the figure for `Cc1cc2nccnc2cc1C(=O)N1CCc2c(nn(C)c2-c2cc(F)c(F)c(F)c2)[C@@H]1C` [Example 473, [(7S)-2,7-Dimethyl-3-(3,4,5-trifluorophenyl)-5,7-dihydro-4H-pyrazolo[3,4-c]pyridin-6-yl]-(7-methylquinoxalin-6-yl) methanone] is 30.7 nM.
On the same count and under the same terms, to `Cc1nc(C(=O)N2CCc3c(nn(C)c3-c3cc(F)c(F)c(F)c3)[C@@H]2C)c2ncccn12` [Example 460, [(7S)-2,7-Dimethyl-3-(3,4,5-trifluorophenyl)-5,7-dihydro-4H-pyrazolo[3,4-c]pyridin-6-yl]-(6-methylimidazo[1,5-a]pyrimidin-8-yl)methanone] belongs 522 nM.

Still in this assay, the particulars now being: 300 nM [Glycerol-1,3-3H]-oleyl glycerol, one hour incubation.
For `COc1ccc(C)c(C(=O)N2CCc3c(nn(C)c3-c3cc(F)c(F)c(F)c3)[C@@H]2C)n1` [Example 302, [(7S)-2,7-Dimethyl-3-(3,4,5-trifluorophenyl)-5,7-dihydro-4H-pyrazolo[3,4-c]pyridin-6-yl]-(6-methoxy-3-methyl-2-pyridyl)methanone], half-maximal inhibition (IC50) was put at 312 nM.
`C[C@H]1c2nn(C)c(-c3cccc(Cl)c3)c2CCN1C(=O)c1cc2ncccc2o1` [Example 129, (S)-(3-(3-Chlorophenyl)-2,7-dimethyl-2,4,5,7-tetrahydro-6H-pyrazolo[3,4-c]pyridin-6-yl)(furo[3,2-b]pyridin-2-yl)methanone] had an IC50 of 47.2 nM.
The same measure, in the same setting: the figure for `Cn1nc2c(c1-c1ccccc1)CCN(C(=O)c1c(F)ccc3[nH]ccc13)C2` [Example 47, (5-Fluoro-1H-indol-4-yl)(2-methyl-3-phenyl-2,4,5,7-tetrahydro-6H-pyrazolo[3,4-c]pyridin-6-yl)methanone] is 70.2 nM.
For `C[C@H]1c2nn(C)c(-c3cc(F)c(F)c(F)c3)c2CCN1C(=O)c1ccc2ncccc2c1` [Example 234, (S)-(2,7-Dimethyl-3-(3,4,5-trifluorophenyl)-2,4,5,7-tetrahydro-6H-pyrazolo[3,4-c]pyridin-6-yl)(quinolin-6-yl)methanone], half-maximal inhibition (IC50) was put at 4.71 nM.
On the same count and under the same terms, the figure for `COc1cc(OC)cc(C(=O)N2CCc3c(nn(C)c3-c3ccccc3)C2)c1` [Example 11, (3,5-Dimethoxyphenyl)-(2-methyl-3-phenyl-5,7-dihydro-4H-pyrazolo[3,4-c]pyridin-6-yl)methanone] is 187 nM; for `CC1c2nn(-c3ccccc3)c(-c3ccccc3)c2CCN1C(=O)c1ccc2ncccc2c1` (stereo not shown) [Example 113, (7-Methyl-2,3-diphenyl-2,4,5,7-tetrahydro-6H-pyrazolo[3,4-c]pyridin-6-yl)(quinolin-6-yl)methanone] it is 236 nM.
The same measure, in the same setting: to `Cn1nc2c(c1-c1ccccc1)CCN(C(=O)c1cccc3cn[nH]c13)C2` [Example 67, (1H-Indazol-7-yl)(2-methyl-3-phenyl-2,4,5,7-tetrahydro-6H-pyrazolo[3,4-c]pyridin-6-yl)methanone] belongs 1630 nM.
In turn, `C[C@H]1c2nn(C)c(-c3cc(F)c(F)c(F)c3)c2CCN1C(=O)c1ncn(-c2ncccc2F)n1` [Example 324, [(7S)-2,7-Dimethyl-3-(3,4,5-trifluorophenyl)-5,7-dihydro-4H-pyrazolo[3,4-c]pyridin-6-yl]-[1-(3-fluoro-2-pyridyl)-1,2,4-triazol-3-yl]methanone] displayed an IC50 of 41.7 nM.
On the same count and under the same terms, to `C[C@H]1c2nn(C)c(-c3cc(F)c(F)c(F)c3)c2CCN1C(=O)c1cc(F)cc(-n2cncn2)c1` [Example 277, [(7S)-2,7-Dimethyl-3-(3,4,5-trifluorophenyl)-5,7-dihydro-4H-pyrazolo[3,4-c]pyridin-6-yl]-[3-fluoro-5-(1,2,4-triazol-1-yl)phenyl]methanone] belongs 22 nM; to `C[C@@H]1c2nn(C)c(-c3cc(F)c(F)c(F)c3)c2CCN1C(=O)c1ccc2ncccc2c1` [Example 235, (R)-(2,7-Dimethyl-3-(3,4,5-trifluorophenyl)-2,4,5,7-tetrahydro-6H-pyrazolo[3,4-c]pyridin-6-yl)(quinolin-6-yl)methanone], 3660 nM; to `COc1cc(Cl)cc(C(=O)N2CCc3c(nn(C)c3-c3ccccc3)C2)c1` [Example 16, (3-Chloro-5-methoxyphenyl)(2-methyl-3-phenyl-2,4,5,7-tetrahydro-6H-pyrazolo[3,4-c]pyridin-6-yl)methanone], 77.9 nM.
On the same count and under the same terms, to `CCc1nc(C(=O)N2CCc3c(nn(C)c3-c3cc(F)cc(F)c3)[C@@H]2C)nn1-c1ccccc1` [Example 149, (S)-(3-(3,5-Difluorophenyl)-2,7-dimethyl-2,4,5,7-tetrahydro-6H-pyrazolo[3,4-c]pyridin-6-yl)(5-ethyl-1-phenyl-1H-1,2,4-triazol-3-yl)methanone] belongs 11.9 nM; to `C[C@H]1c2nn(C(F)F)c(-c3cc(F)c(F)c(F)c3)c2CCN1C(=O)c1ccc2ncccc2c1` [Example 232, (S)-(2-(Difluoromethyl)-7-methyl-3-(3,4,5-trifluorophenyl)-2,4,5,7-tetrahydro-6H-pyrazolo[3,4-c]pyridin-6-yl)(quinolin-6-yl)methanone], 5.57 nM.

The values are drawn from patent publication US11820766B2, “Monoacylglycerol lipase modulators” (Janssen Pharmaceutica NV, priority 2018, dated 2023).
